{
  "source": "patent US12325744B2",
  "about": "“Methods for reducing post-operative cognitive dysfunction (POCD)” (The Kennedy Trust for Rheumatology Research, priority 2010, dated 2025)",
  "system": "IL-1β",
  "test": "Plasma IL-1β by ELISA after LPS injection",
  "type": "in vivo, mice",
  "settings": "LPS 1 mg/kg i.p., IL-1Ra 100 mg/kg s.c. immediately before LPS",
  "protocol": "Treatment. LPS derived from Escherichia Coli endotoxin ([…], InvivoGen, USA, 1 mg/kg) was dissolved in normal saline and injected intraperitoneally. IL-1Ra (Amgen, Anakinra 100 mg/kg, Nederlands) was given subcutaneously immediately before LPS administration. Dose response curve from LPS or IL-1Ra was obtained from our pilot studies to provoke or to suppress moderate degree of microglia activation respectively. Control animals were injected with equivalent volumes (0.1 ml) of saline. Mice from each treatment group were randomly assigned for assessment of either cytokine response or cognitive behavior, in order to obviate possible confounding effects of behavioral testing on inflammatory markers.\nPlasma cytokine measurement. Blood was sampled transcardially after thoracotomy under terminal anesthesia 30 minutes, 2, 6, 12 hours and 1, 3, 7 days after experiments in the different cohorts and centrifuged at 3,600 rpm for 7 minutes at 4° C. Blood samples taken from animals without any interventions severed as controls. Plasma samples were stored at −20° C. for further analysis. Plasma cytokine and HMGB-1 were measured using commercially available ELISA kits from Biosource, CA and Shino-test Corporation, Japan, respectively. The sensitivities of the assays were <3 pg/ml for TNFα, <7 pg/ml for IL-1β, <3 pg/ml for IL-6 and 1 ng/ml for HMGB-1.",
  "data": [
    {"substance": "IL-1Ra: IL-1 receptor antagonist (Amgen, Anakinra)", "values": [
      {"measurement": "Plasma IL-1β at 6 hours after LPS with IL-1Ra", "setting": "6 hours", "result": "32.7 ± 5.45", "unit": "pg/mL"},
      {"measurement": "Plasma IL-1β at 24 hours after LPS with IL-1Ra", "setting": "24 hours", "result": "6.2 ± 1.03", "unit": "pg/mL"}
    ]}
  ]
}
